Data from US20060211724A1, “Hiv integrase inhibitors” (priority 2003, published 2006).

Assays:
[1] = tested on: MT4 cells infected with HIV; assay: Analysis of HIV integration using real-time PCR; format: cell-based; details: for 2LTR-circles (DNA copies) / Integration Alu-PCR (integrated DNA copies): DNA analyzed 16 h after infection, relative to control; for Conclusion (step of replication cycle inhibited): from Alu-PCR and 2LTR-circles
Protocol: Analysis of HIV Integration Using Real-Time PCR
Next to the detection of integrated DNA (proviral DNA), the production of 2LTR-circles formed by circularisation of unintegrated DNA was monitored. Specific inhibition of the integration of viral DNA into the genome was typically associated with accumulation of 2LTR-circles in the nucleus. MT4 cells were infected with HIV at high MOI by centrifugation for 60 min at 1200 g. After infection cells were incubated in the presence of compound in 24-well plates (10^6 c/well) for 16 h, and DNA was extracted using the QiaAmp DNA mini kit (Qiagen).
After normalization, 2LTR-circles and integrated DNA were quantified by real-time PCR using the appropriate primers and probe (cfr. reference Butler et al.). Reactions were analysed using the ABI Prism 5700 sequence detection system (Applied Biosystems).
DNA was analyzed for integration (Alu-PCR) and 2LTR-circles, 16 h after infection. DNA was also analyzed for viral cDNA synthesis, 4 h after infection.

[2] = biological target: T1, Recombinant His-tagged HIV-1 integrase (Human immunodeficiency virus type 1 group M subtype B, UniProt P12497, C1427S/F1332K); assay: Enzymatic integrase assay (oligonucleotide-based DNA strand transfer, ELISA); format: biochemical
T1 construct: Recombinant His-tagged HIV-1 integrase; His; made in house; host or cells: E. coli BL21(DE3)
Protocol: Enzymatic Integrase Assay
The activity of HIV-integrase was determined using an oligonucleotide-based assay in which the DNA strand transfer by preformed complexes of integrase and processed DNA was measured by means of an enzyme-linked immunosorbent assay (ELISA) in microtiter plate format. Recombinant His-tagged HIV-1 integrase was produced in the E. coli strain BL21(DE3) from the plasmid pINSD.His.sol (available from NTH) after induction with isopropyl-β-D-thiogalactopyranoside (IPTG) according to described procedures (cfr. ref. Jenkins et al., “A soluble active mutant of HIV-1 integrase”, J. Biol. Chem. 271 ([…]), 7712-7718). HPLC-purified oligodeoxynucleotides were obtained from Proligo, and used for preparation of the viral DNA substrate and target DNA.
INb-1C is 5′-biotinylated, INT5 and INT6 are at the 3′-end labeled with FITC. INb-1C and IN-1NC correspond to the U5 end of the HIV-1 LTR. The DNA substrate for the integrase reactions was made by annealing INb-1C and IN-1NC. An equimolar mixture of INb-1C and IN-1NC was heated shortly at 95° C. in the presence of 100 mM NaCl and allowed to cool slowly to room temperature. In the same way, INT5 and INT6 were annealed to produce a target DNA molecule.
The integration strand transfer reactions were performed in the following way:
20 nM biotinylated DNA substrate INb-1C/IN-1NC was pre-incubated with 300 nM HIV-integrase at 37° C. for 5 min, to allow the cleavage reaction to occur. The candidate compounds and 50 nM target DNA INT5/INT6 were added to the reaction mix containing 20 mM Hepes pH 7.5, 25 mM NaCl, 5 mM MnCl2, 2 mM DTT, and 50 μg/ml BSA, and incubated for 2 h at 37° C. The reaction mix was transferred to streptavidin-coated plates (Exiqon), which were prewashed (three times) with 5×SSCT, and incubated for 1 h at room temperature to allow capture of the biotinylated viral DNA/target DNA complex. Plates were washed three times with 2×SSCT buffer, and anti-FITC POD-coupled antibody (Roche) was added and incubated for 1 h at room temperature to detect integrated FITC-labeled target DNA. After a final washing step with PBST (5 times), BM chemiluminescent POD-substrate (Roche) was added, and luminescence was read out.
The table below list the pIC50 values for those compounds tested in the enzymatic integrase assay. The pIC50 is expressed in Molar units and is the value according to the following formula: pIC50=−log IC50
wherein the IC50 value is the drug concentration at which 50% of the enzyme or viral activity is inhibited.

Structure (SMILES) | 2LTR-circles (DNA copies) [1] | Integration Alu-PCR (integrated DNA copies) [1] | Conclusion (step of replication cycle inhibited) [1] | IC50 [2] [µM]
O=C1c2c(c(O)c3nccnc3c2O)C(=O)N1Cc1ccc(F)cc1 [Compound 2, 7-(4-Fluoro-benzyl)-5,9-dihydroxy-pyrrolo[3,4-g]quinoxaline-6,8-dione] | +++ (“+++” symbol indicates an increase in the amount of DNA copies > 5 in comparison with the control level) | − | Integrase | 0.417
O=C1c2c(c(O)c3nccnc3c2O)C(=O)N1Cc1ccc2c(c1)OCO2 [Compound 1, 7-Benzo[1,3]dioxol-5-ylmethyl-5,9-dihydroxy-pyrrolo[3,4-g]quinoxaline-6,8-dione] | +++ (“+++” symbol indicates an increase in the amount of DNA copies > 5 in comparison with the control level) | − | Integrase | 0.617
CC(C)Oc1ccc(Cc2ccccc2)cc1C(=O)CC(=O)C(=O)O [Reference compound, reference compound] | +++ (“+++” symbol indicates an increase in the amount of DNA copies > 5 in comparison with the control level) | − | Integrase | 
Cc1ccc2c(O)c3c(c(O)c2n1)C(=O)N(Cc1ccc(F)cc1)C3=O [Compound 22, 7-(4-Fluoro-benzyl)-5,9-dihydroxy-2-methyl-pyrrolo[3,4-g]quinoline-6,8-dione] |  |  |  | 0.398
O=C1c2c(c(OCc3ccccc3)c3nccnc3c2O)C(=O)N1Cc1ccc2c(c1)OCO2 [Compound 31, 7-Benzo[1,3]dioxol-5-ylmethyl-5-benzyloxy-9-hydroxy-pyrrolo[3,4-g]quinoxaline-6,8-dione] |  |  |  | > 100
O=C1c2c(c(O)c3c(F)cccc3c2O)C(=O)N1Cc1ccc(F)cc1 [Compound 13, 5-Fluoro-2-(4-fluoro-benzyl)-4,9-dihydroxy-benzo[f]isoindole-1,3-dione] |  |  |  | > 100
